Literature values in patent US9226984B2, “Entrapment of radionuclides in nanoparticle compositions” (Technical University of Denmark and Rigshospitalet, priority 2010, dated 2016).

Details: ionophore-assisted loading

## Oc1cccc2cccnc12 [oxine, 8-hydroxyquinoline]
  64Cu2+ retention of liposomes loaded with the ionophore: unstable liposomes
